# Test results published in patent publication US8435997B2, “Cysteine prodrugs to treat schizophrenia and drug addiction” (Marquette University, priority 2007, dated 2013).
# Columns and labels:
# [1] = system: cocaine-induced reinstatement; assay: Extinction/reinstatement paradigm, cocaine-induced reinstatement of lever pressing; type: in vivo; details: rats, cocaine 10 mg/kg IP
# Source text: The extinction/reinstatement paradigm represents one of the most common paradigms used to screen for potential anticraving properties of novel pharmacotherapies. In the present experiments, rats were implanted with indwelling jugular catheters with an external port affixed slightly posterior to the rat's shoulder blades. Tubing is used to connect a syringe of cocaine to the external port of the indwelling catheter. Rats are then placed into standard operant chambers (Med Associates) and permitted to press a lever for an infusion of cocaine (0.5 mg/kg/200 microL, IV). Once behavior is stable, rats are permitted at least eleven 2-hr sessions to self-administer cocaine. Afterwards, the cocaine solution is replaced with saline in order to extinguish lever pressing. Once responding decreases to 10 or fewer lever presses/2 hr sessions for 3 out of 4 daily sessions, rats are tested for reinstatement (relapse). To do this, rats are placed into the operant chamber and vehicle or a cysteine/cystine prodrug (1-60 mg/kg, p.o.; N=2-12) is administered. Afterwards, rats then receive an injection of cocaine (10 mg/kg, IP). Responding is then assessed for 120 min.
# [2] = system: PCP-evoked deficits in pre-pulse inhibition; assay: Prepulse inhibition of startle response, phencyclidine (PCP)-induced sensorimotor gating deficits; type: in vivo, rats; details: for sensorimotor gating (inhibition of startle response by pre-pulse) after PCP: rats, 30 mg/kg po, 60 min prior to PCP 1 mg/kg SC, pre-pulse 2-15 db above background, FIG. 2
# [3] = system: extracellular glutamate in the prefrontal cortex; assay: Extracellular glutamate in the prefrontal cortex compared to baseline after prodrug administration; type: in vivo; details: rats; compound 7 30 mg/kg po (N=1) versus N-acetylcysteine 60 mg/kg IP (N=4); FIG. 1
# Protocol: FIG. 1 is a bar graph depicting extracellular glutamate in the prefrontal cortex (compared to baseline) following administration of cysteine prodrugs N-acetylcysteine (60 mg/kg, IP; N=4) or compound 7 (30 mg/kg, po; N=1) in rats. […] Compound 7 was given to the animal orally, and thereby subjected to potential first-pass metabolism. Conversely, N-acetylcysteine was given IP in order to avoid extensive first pass metabolism that would occur following oral administration. Thus, compound 7 produced a larger relative increase in glutamate in rats as compared to NAC even though NAC was given in its preferred route of administration and at twice the concentration.
compound,measurement,setting,value
CC(=O)N[C@@H](CS)C(=O)O [N-acetylcysteine],cocaine-induced reinstatement (responding),"[1]; 30 and 60 mg/kg IP, responding over 120 min, FIG. 8",significant reduction in cocaine-induced reinstatement
same,cocaine-induced reinstatement (responding),"[1]; given orally, FIG. 9",less effective when given orally
same,restoration of inhibition of a startle response after PCP,"[2]; infused directly into the rodent prefrontal cortex, 0-100 microM, FIG. 5",significantly restored inhibition of a startle response at each concentration tested
same,restoration of sensorimotor gating after PCP,"[2]; intraperitoneal injection 60 min prior to testing, three prepulse stimulus intensities, FIG. 4",failed to significantly restore sensorimotor gating at any of the three prepulse stimulus intensities
same,attenuation of deficits in prepulse inhibition produced by phencyclidine,"[2]; oral administration 60 min prior to testing, FIG. 3",fails to significantly attenuate deficits in prepulse inhibition
same,sensorimotor gating (inhibition of startle response by pre-pulse) after PCP,[2],trend toward improved sensorimotor gating (p=0.1)
"CCOC1=NC(CSSCC2N=C(OCC)CN=C2OCC)C(OCC)=NC1 (centres unmarked) [Compound 6, Bis[(3,6-Diethoxy-2,5-dihydro-pyrazin-2-yl)-methanethiol]]",restoration of sensorimotor gating after PCP,"[2]; oral administration (0-1 mg/kg) 60 min prior to testing, prepulse 2, 6, 15 dB above background, FIG. 7",significantly restored sensorimotor gating at the highest prepulse intensity
"O=C1CNC(=O)[C@H](CSSC[C@H]2NC(=O)CNC2=O)N1 [Compound 7, Bis[2,5-Piperazinedione, 3-(mercaptomethyl)-]]",sensorimotor gating (inhibition of startle response by pre-pulse) after PCP,[2],significant improvement in sensorimotor gating relative to PCP controls and rats receiving NAC+PCP
same,peak increase in extracellular glutamate in the prefrontal cortex (compared to baseline),[3],much larger peak increase in glutamate
"CCOC1=NC(CS)C(OCC)=NC1 (centres unmarked) [Compound 5, (3,6-Diethoxy-2,5-dihydro-pyrazin-2-yl)-methanethiol]",cocaine-induced reinstatement (responding),"[1]; 1 mg/kg p.o., FIG. 9",sufficient to block cocaine-induced reinstatement
same,sensorimotor gating as assessed by inhibition of a startle response after PCP,"[2]; 1 mg/kg orally 60 min prior to testing, PCP 0-1.25 mg/kg SC, FIG. 6",significant increase in sensorimotor gating
